# Assay results published in patent US7799809B2, “Carboxamide compounds and their use as calpain inhibitors” (Abbott GmbH & Co. KG, priority 2006, dated 2010).
# Assays:
# Format in all cases: biochemical
# cathepsin B = target: T1, cathepsin B (Homo sapiens, UniProt P07858); test: Cathepsin B enzyme inhibition in vitro (kinetic fluorescence assay); details: cathepsin B isolated from human liver vs calpain I
# T1 construct: cathepsin B—isolated from human liver (Calbiochem #219362); purchased Calbiochem 219362; host or cells: human liver (tissue-derived)
# Protocol: (§1) The following solutions and buffers were employed: • HBS (for 40 ml): 800 μl M HEPES; 2.16 ml 100 mM KCl; 4.8 ml 1M NaCl; 3.59 ml 5% glucose; 60 μl μM MgSO4; 400 μl 100 mM Na pyruvate, 28.19 ml water; pH 7.2-7.5. • lysis buffer (for 20 ml): 400 μl M Tris pH 8.2; 2.74 ml 1M NaCl; 520 μl 0.5M EDTA; 2 ml 10% triton X-100; 0.8 ml (=1:25) CompletePlus (1 tablet/2 ml H2O); 200 μl 100 mM Pefabloc; 13.34 ml water, pH 8.2. • TBST (10×) (for 1 l): 100 mM Tris (12.1 g); 1.5M NaCl (87 g); 1% Tween 20 (10 g), adjusted to pH 8. I Enzyme Inhibition In Vitro: • Testing for blockade of the corresponding enzymic activities was carried out by means of kinetic fluorescence assays (excitation 390 nm, emission 460 nm). • Apparent Ki values were calculated from the experimentally determined IC50 values by the Cheng-Prussoff relation assuming a reversible competitive enzyme inhibition. The Km values of the substrates used under the assay conditions indicated above were: 90 μM (Z-Phe-Arg-AMC, cathepsin B), 10 μM (Z-Gly-Pro-Arg-AMC, cathepsin K), 2 μM (Z-Phe-Arg-AMC, cathepsin L), and 30 μM (Z-Val-Val-Arg-AMC, cathepsin S). • The indicated Ki values are averages of the inhibition constants calculated on the basis of 2 to 4 independent dose-effect plots.
# (§2) The following assays were used: • 1. Calpain I: • 20 nM calpain-I—isolated from human erythrocytes (Calbiochem #208713), 100 μM Suc-Leu-Tyr-AMC (Bachem #1-1355) as substrate in buffer with 62 mM imidazole, 0.3 mM CaCl2, 0.10% CHAPS, 0.05% BSA, 1 mM DTT at pH 7.3 and room temperature. • 2. Cathepsin B: • 0.25 nM cathepsin B—isolated from human liver (Calbiochem #219362), 100 μM Z-Phe-Arg-AMC (Bachem #I-1160) as substrate 50 mM MES, 2 mM EDTA, 0.05% Brij 35, 2.5 mM L-cysteine, pH 6.0, room temperature. • 3. Cathepsin K: • 3 nM cathepsin K—activated from recombinant human procathepsin K from E. coli (Calbiochem #342001), 10 μM Z-Gly-Pro-Arg-AMC (Biomol #P-142) as substrate in 50 mM MES, 2 mM EDTA, 0.05% Brij 35, 2.5 mM L-cysteine, pH 6.0, room temperature. • 4. Cathepsin L: • 1 nM cathepsin L—isolated from human liver (Calbiochem #219402), 2 μM Z-Phe-Arg-AMC (Bachem #1-1160) as substrate in 50 mM MES, 2 mM EDTA, 0.05% Brij 35, 2.5 mM L-cysteine, pH 6.0, room temperature. • 5. Cathepsin S: • 0.5 nM recombinant human cathepsin S from E. coli (Calbiochem #219343), 20 μM Z-Val-Val-Arg-AMC (Bachem #1-1540) as substrate in 50 mM MES, 2 mM EDTA, 0.05% Brij 35, 2.5 mM L-cysteine, pH 6.0, room temperature. • The results of the in vitro determination are indicated in Table 1. The following abbreviations are used in Table 1: • The “Calpain activity” column, ++ stands for a calpain Ki (Ki(calpain)) of ≦40 nM and + means: 40 nM<Ki(Calpain)≦100 nM. • The “Sel. cat. B” column indicates the Ki(cathepsin B)/Ki(calpain) ratio. In this connection, ++ means a Ki(cathepsin B)/Ki(calpain) ratio of ≧30 and + means 10≦Ki(cathepsin B)/Ki(calpain)<30. • The “Sel. cat. K” column indicates the Ki(cathepsin K)/Ki(calpain) ratio. In this connection, ++ means a Ki(cathepsin K)/Ki(calpain) ratio of ≧30 and + means 10≦Ki(cathepsin K)/Ki(calpain)<30. • The “Sel. cat. L” column indicates the Ki(cathepsin L)/Ki(calpain) ratio. In this connection, ++ means a Ki(cathepsin L)/Ki(calpain) ratio of ≧50 and + means 30≦Ki(cathepsin L)/Ki(calpain)<50. • The “Sel. cat. S” column indicates the Ki(cathepsin S)/Ki(calpain) ratio. In this connection, ++ means a Ki(cathepsin S)/Ki(calpain) ratio of ≧100 and + means 50≦Ki(cathepsin S)/Ki(calpain)<100.
# cathepsin L = target: T2, cathepsin L (Homo sapiens, UniProt P07711); test: Cathepsin L enzyme inhibition in vitro (kinetic fluorescence assay); details: cathepsin L isolated from human liver vs calpain I
# T2 construct: cathepsin L—isolated from human liver (Calbiochem #219402); purchased Calbiochem 219402; host or cells: human liver (tissue-derived)
# Protocol: as §1, §2
# cathepsin S = target: T3, cathepsin S (Homo sapiens, UniProt P25774); test: Cathepsin S enzyme inhibition in vitro (kinetic fluorescence assay); details: recombinant human cathepsin S vs calpain I
# T3 construct: purchased Calbiochem 219343; host or cells: E. coli
# Protocol: as §1, §2
# T2 sequence (P07711 114-333): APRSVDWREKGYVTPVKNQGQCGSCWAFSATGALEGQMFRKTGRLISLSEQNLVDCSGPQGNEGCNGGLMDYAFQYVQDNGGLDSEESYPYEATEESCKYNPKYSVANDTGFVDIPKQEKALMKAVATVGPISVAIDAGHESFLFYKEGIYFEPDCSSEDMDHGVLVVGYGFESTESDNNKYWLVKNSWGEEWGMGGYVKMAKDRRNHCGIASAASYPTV
# T3 sequence (P25774 115-331): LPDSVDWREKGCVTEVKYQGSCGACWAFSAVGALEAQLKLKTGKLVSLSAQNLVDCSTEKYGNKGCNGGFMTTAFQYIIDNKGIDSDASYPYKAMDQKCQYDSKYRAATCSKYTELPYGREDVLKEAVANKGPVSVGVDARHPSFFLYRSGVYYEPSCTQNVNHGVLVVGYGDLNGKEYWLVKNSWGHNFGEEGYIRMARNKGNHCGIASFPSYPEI
molecule,measurement,setting,value
"N-{3-Amino-1-[(4-fluorophenyl)methyl]-2,3-dioxopropyl}-2-[3-(2,3-dichlorophenyl)-1H-pyrazol-1-yl]pyridine-3-carboxamide [Example 161]",Sel cat. B: Ki(cathepsin B)/Ki(calpain) ratio,cathepsin B,+ (+ means 10≦Ki(cathepsin B)/Ki(calpain)<30)
same,Sel cat. L: Ki(cathepsin L)/Ki(calpain) ratio,cathepsin L,+ (+ means 30≦Ki(cathepsin L)/Ki(calpain)<50)
same,Sel cat. S: Ki(cathepsin S)/Ki(calpain) ratio,cathepsin S,++ (++ means a Ki(cathepsin S)/Ki(calpain) ratio of ≧100)
"CC(C)c1ccc2c(c1)-c1nn(-c3ncccc3C(=O)NC(Cc3ccccc3)C(=O)C(N)=O)cc1CO2 (centres unmarked) [Example 144, N-[3-Amino-2,3-dioxo-1-(phenylmethyl)propyl]-2-[8-(1-methylethyl)chromeno[4,3-c]pyrazol-2(4H)-yl]pyridine-3-carboxamide]",Sel cat. B: Ki(cathepsin B)/Ki(calpain) ratio,cathepsin B,+ (+ means 10≦Ki(cathepsin B)/Ki(calpain)<30)
same,Sel cat. L: Ki(cathepsin L)/Ki(calpain) ratio,cathepsin L,++ (++ means a Ki(cathepsin L)/Ki(calpain) ratio of ≧50)
same,Sel cat. S: Ki(cathepsin S)/Ki(calpain) ratio,cathepsin S,++ (++ means a Ki(cathepsin S)/Ki(calpain) ratio of ≧100)
"NC(=O)C(=O)C(Cc1ccccc1)NC(=O)c1cccnc1-n1ccc(-c2ccc(N3CCCCC3)cc2)n1 (centres unmarked) [Example 64, N-(3-Amino-1-benzyl-2,3-dioxopropyl)-2-[3-(4-piperidin-1-ylphenyl)-1H-pyrazol-1-yl]nicotinamide]",Sel cat. B: Ki(cathepsin B)/Ki(calpain) ratio,cathepsin B,+ (+ means 10≦Ki(cathepsin B)/Ki(calpain)<30)
same,Sel cat. S: Ki(cathepsin S)/Ki(calpain) ratio,cathepsin S,++ (++ means a Ki(cathepsin S)/Ki(calpain) ratio of ≧100)
"Cc1cc(-c2ccccc2)nn1-c1ncccc1C(=O)NC(Cc1ccccc1)C(=O)C(N)=O (centres unmarked) [Example 61, N-(3-Amino-1-benzyl-2,3-dioxopropyl)-2-(5-methyl-3-phenyl-1H-pyrazol-1-yl)nicotinamide]",Sel cat. B: Ki(cathepsin B)/Ki(calpain) ratio,cathepsin B,+ (+ means 10≦Ki(cathepsin B)/Ki(calpain)<30)
same,Sel cat. S: Ki(cathepsin S)/Ki(calpain) ratio,cathepsin S,++ (++ means a Ki(cathepsin S)/Ki(calpain) ratio of ≧100)
"NC(=O)C(=O)C(Cc1ccc(Br)cc1)NC(=O)c1cccnc1-n1ccc(-c2ccccc2)n1 (centres unmarked) [Example 122, N-{3-Amino-1-[(4-bromophenyl)methyl]-2,3-dioxopropyl}-2-(3-phenyl-1H-pyrazol-1-yl)pyridine-3-carboxamide]",Sel cat. B: Ki(cathepsin B)/Ki(calpain) ratio,cathepsin B,++ (++ means a Ki(cathepsin B)/Ki(calpain) ratio of ≧30)
same,Sel cat. L: Ki(cathepsin L)/Ki(calpain) ratio,cathepsin L,++ (++ means a Ki(cathepsin L)/Ki(calpain) ratio of ≧50)
same,Sel cat. S: Ki(cathepsin S)/Ki(calpain) ratio,cathepsin S,++ (++ means a Ki(cathepsin S)/Ki(calpain) ratio of ≧100)
"CCCCC(NC(=O)c1cccnc1-n1ccc(-c2ccc(N3CCOCC3)cc2)n1)C(=O)C(N)=O (centres unmarked) [Example 33, N-{1-[Amino(oxo)acetyl]pentyl}-2-[3-(4-morpholin-4-ylphenyl)-1H-pyrazol-1-yl]nicotinamide]",Sel cat. B: Ki(cathepsin B)/Ki(calpain) ratio,cathepsin B,+ (+ means 10≦Ki(cathepsin B)/Ki(calpain)<30)
same,Sel cat. S: Ki(cathepsin S)/Ki(calpain) ratio,cathepsin S,+ (+ means 50≦Ki(cathepsin S)/Ki(calpain)<100)
"CCCCC(NC(=O)c1cc(Cl)cnc1-n1ccc(-c2ccccc2)n1)C(=O)C(N)=O (centres unmarked) [Example 28, N-{1-[Amino(oxo)acetyl]pentyl}-5-chloro-2-(3-phenyl-1H-pyrazol-1-yl)nicotinamide]",Sel cat. B: Ki(cathepsin B)/Ki(calpain) ratio,cathepsin B,+ (+ means 10≦Ki(cathepsin B)/Ki(calpain)<30)
"CC(C)CC(NC(=O)c1cc(Cl)cnc1-n1ccc(-c2ccccc2)n1)C(=O)C(N)=O (centres unmarked) [Example 32, N-{1-[Amino(oxo)acetyl]-3-methylbutyl}-5-chloro-2-(3-phenyl-1H-pyrazol-1-yl)nicotinamide]",Sel cat. B: Ki(cathepsin B)/Ki(calpain) ratio,cathepsin B,+ (+ means 10≦Ki(cathepsin B)/Ki(calpain)<30)
"Cc1cn(-c2ncccc2C(=O)NC(Cc2ccccc2)C(=O)C(N)=O)nc1-c1ccccc1 (centres unmarked) [Example 84, N-(3-Amino-1-benzyl-2,3-dioxopropyl)-2-(4-methyl-3-phenyl-1H-pyrazol-1-yl)nicotinamide]",Sel cat. B: Ki(cathepsin B)/Ki(calpain) ratio,cathepsin B,+ (+ means 10≦Ki(cathepsin B)/Ki(calpain)<30)
same,Sel cat. L: Ki(cathepsin L)/Ki(calpain) ratio,cathepsin L,++ (++ means a Ki(cathepsin L)/Ki(calpain) ratio of ≧50)
same,Sel cat. S: Ki(cathepsin S)/Ki(calpain) ratio,cathepsin S,++ (++ means a Ki(cathepsin S)/Ki(calpain) ratio of ≧100)
"NC(=O)C(=O)C(Cc1ccccc1)NC(=O)c1cccnc1-n1cc2ccccc2n1 (centres unmarked) [Example 78, N-(3-Amino-1-benzyl-2,3-dioxopropyl)-2-(2H-indazol-2-yl)nicotinamide]",Sel cat. L: Ki(cathepsin L)/Ki(calpain) ratio,cathepsin L,++ (++ means a Ki(cathepsin L)/Ki(calpain) ratio of ≧50)
same,Sel cat. S: Ki(cathepsin S)/Ki(calpain) ratio,cathepsin S,+ (+ means 50≦Ki(cathepsin S)/Ki(calpain)<100)
"NC(=O)C(=O)C(Cc1ccccc1)NC(=O)c1cccnc1-n1ccc(-c2ccc(Cl)cc2)n1 (centres unmarked) [Example 39, N-(3-Amino-1-benzyl-2,3-dioxopropyl)-2-[3-(4-chlorophenyl)-1H-pyrazol-1-yl]nicotinamide]",Sel cat. L: Ki(cathepsin L)/Ki(calpain) ratio,cathepsin L,++ (++ means a Ki(cathepsin L)/Ki(calpain) ratio of ≧50)
same,Sel cat. S: Ki(cathepsin S)/Ki(calpain) ratio,cathepsin S,++ (++ means a Ki(cathepsin S)/Ki(calpain) ratio of ≧100)
"CS(=O)(=O)NCc1cn(-c2ncccc2C(=O)NC(Cc2ccccc2)C(=O)C(N)=O)nc1-c1ccc(F)cc1 (centres unmarked) [Example 187, N-[3-Amino-2,3-dioxo-1-(phenylmethyl)propyl]-2-[3-(4-fluorophenyl)-4-{[(methylsulfonyl)amino]methyl}-1H-pyrazol-1-yl]pyridine-3-carboxamide]",Sel cat. L: Ki(cathepsin L)/Ki(calpain) ratio,cathepsin L,+ (+ means 30≦Ki(cathepsin L)/Ki(calpain)<50)
same,Sel cat. S: Ki(cathepsin S)/Ki(calpain) ratio,cathepsin S,++ (++ means a Ki(cathepsin S)/Ki(calpain) ratio of ≧100)
"CCCCC(NC(=O)c1cccnc1-n1cnc(-c2ccc(C(F)(F)F)cc2)c1)C(=O)C(N)=O.Cl (centres unmarked) [Example 17, N-{1-[Amino(oxo)acetyl]pentyl}-2-{4-[4-(trifluoromethyl)phenyl]-1H-imidazol-1-yl}nicotinamide hydrochloride]",Sel cat. L: Ki(cathepsin L)/Ki(calpain) ratio,cathepsin L,++ (++ means a Ki(cathepsin L)/Ki(calpain) ratio of ≧50)
same,Sel cat. S: Ki(cathepsin S)/Ki(calpain) ratio,cathepsin S,+ (+ means 50≦Ki(cathepsin S)/Ki(calpain)<100)
"N#Cc1ccc(-c2ccn(-c3ncccc3C(=O)NC(Cc3ccccc3)C(=O)C(N)=O)n2)cc1 (centres unmarked) [Example 62, N-(3-Amino-1-benzyl-2,3-dioxopropyl)-2-[3-(4-cyanophenyl)-1H-pyrazol-1-yl]nicotinamide]",Sel cat. L: Ki(cathepsin L)/Ki(calpain) ratio,cathepsin L,++ (++ means a Ki(cathepsin L)/Ki(calpain) ratio of ≧50)
same,Sel cat. S: Ki(cathepsin S)/Ki(calpain) ratio,cathepsin S,++ (++ means a Ki(cathepsin S)/Ki(calpain) ratio of ≧100)
"NC(=O)C(=O)C(Cc1ccccc1)NC(=O)c1cccnc1-n1cc2c(n1)-c1ccccc1OCC2 (centres unmarked) [Example 141, N-[3-Amino-2,3-dioxo-1-(phenylmethyl)propyl]-2-(4,5-dihydro-2H-[1]benzoxepino[5,4-c]pyrazol-2-yl)pyridine-3-carboxamide]",Sel cat. L: Ki(cathepsin L)/Ki(calpain) ratio,cathepsin L,++ (++ means a Ki(cathepsin L)/Ki(calpain) ratio of ≧50)
same,Sel cat. S: Ki(cathepsin S)/Ki(calpain) ratio,cathepsin S,++ (++ means a Ki(cathepsin S)/Ki(calpain) ratio of ≧100)
